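Exposure lasted 48 hours, with cells grown in 96-well plates and compounds tested at five concentrations. GI50 marks 50% less growth.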 The source made the active and inactive calls. Rule as the data show it: active = GI50 up to about 1.1 µM and inactive = higher.
Experiments:
Assay in all cases: DTP human tumour cell line panel, 48 h
Malme-3M = tested on: Malme-3M
SW-620 = tested on: SW-620
TK-10 = tested on: TK-10
NCI-H522 = tested on: NCI-H522
ACHN = tested on: ACHN
EKVX = tested on: EKVX
K562 = tested on: K562
SF-295 = tested on: SF-295
OVCAR-3 = tested on: OVCAR-3
U-251 = tested on: U-251
OVCAR-5 = tested on: OVCAR-5
M14 = tested on: M14
786-0 = tested on: 786-0
HCT-116 = tested on: HCT-116
MOLT-4 = tested on: MOLT-4
RPMI-8226 = tested on: RPMI-8226
SF-539 = tested on: SF-539
HCC 2998 = tested on: HCC 2998
HOP-92 = tested on: HOP-92

Measured: GI50

O=C1NC2(C=Cc3c(ccc4ccccc34)O2)Oc2ccccc21 (stereo not drawn)
inactive: Malme-3M 28.1 µM | SW-620 15 µM | TK-10 21.5 µM | NCI-H522 11.4 µM | ACHN 18.7 µM | EKVX 21.1 µM | K562 3.58 µM | SF-295 13 µM | OVCAR-3 13.4 µM | U-251 15 µM | OVCAR-5 36.6 µM | M14 31 µM | 786-0 19 µM | HCT-116 12.7 µM | MOLT-4 7.8 µM | RPMI-8226 6.08 µM | SF-539 15.5 µM

CC1CC2C(=O)N(c3ccccc3)C(=O)C2c2[nH]c3ccccc3c21 (stereo not drawn)
inactive: Malme-3M 46.1 µM | SW-620 > 100 µM | TK-10 85.7 µM | ACHN 57.7 µM | EKVX > 100 µM | K562 33 µM | SF-295 44.8 µM | OVCAR-3 48.2 µM | U-251 38.8 µM | HCC 2998 > 100 µM | M14 78.9 µM | 786-0 50.2 µM | MOLT-4 28.4 µM | RPMI-8226 37.6 µM | SF-539 38.8 µM

C#CCCCC(=C)C[C@@H]1OC(=O)[C@H](C)[C@@H]1O
inactive: SW-620 > 100 µM | ACHN > 100 µM | EKVX > 100 µM | K562 > 100 µM | SF-295 > 100 µM | OVCAR-3 > 100 µM | U-251 > 100 µM | HCC 2998 > 100 µM | OVCAR-5 > 100 µM | M14 > 100 µM | HOP-92 > 100 µM | 786-0 > 100 µM | HCT-116 > 100 µM | MOLT-4 > 100 µM | RPMI-8226 > 100 µM

CCc1ccccc1NC(=O)C(=O)C(C(=O)c1ccc(OC)cc1)c1ccc(OC)cc1 (stereo not drawn)
inactive: Malme-3M > 100 µM | SW-620 > 100 µM | TK-10 > 100 µM | NCI-H522 > 100 µM | ACHN > 100 µM | EKVX > 100 µM | K562 > 100 µM | SF-295 > 100 µM | OVCAR-3 > 100 µM | U-251 > 100 µM | HCC 2998 > 100 µM | OVCAR-5 > 100 µM | M14 > 100 µM | 786-0 > 100 µM | HCT-116 > 100 µM | MOLT-4 94.2 µM | RPMI-8226 > 100 µM | SF-539 > 100 µM

O=C(NCCCCCCCCNC(=O)c1cnc2ccccc2n1)c1cnc2ccccc2n1
inactive: Malme-3M > 100 µM | SW-620 > 100 µM | TK-10 > 100 µM | ACHN > 100 µM | EKVX > 100 µM | K562 > 100 µM | SF-295 > 100 µM | OVCAR-3 > 100 µM | U-251 > 100 µM | OVCAR-5 > 100 µM | M14 > 100 µM | HOP-92 > 100 µM | 786-0 > 100 µM | HCT-116 > 100 µM | MOLT-4 > 100 µM | RPMI-8226 > 100 µM | SF-539 > 100 µM

Cc1nc2ccccc2c(=O)n1-c1ccccc1F
inactive: Malme-3M > 100 µM | SW-620 > 100 µM | TK-10 > 100 µM | NCI-H522 > 100 µM | ACHN > 100 µM | EKVX > 100 µM | K562 > 100 µM | SF-295 > 100 µM | OVCAR-3 > 100 µM | U-251 > 100 µM | HCC 2998 > 100 µM | OVCAR-5 > 100 µM | M14 > 100 µM | HOP-92 > 100 µM | 786-0 > 100 µM | HCT-116 > 100 µM | MOLT-4 > 100 µM | SF-539 > 100 µM

CN(OC(=O)CC(=O)c1ccccc1)C(=O)Cc1ccccc1
inactive: Malme-3M > 100 µM | SW-620 > 100 µM | TK-10 > 100 µM | NCI-H522 > 100 µM | ACHN > 100 µM | EKVX > 100 µM | SF-295 > 100 µM | OVCAR-3 > 100 µM | U-251 > 100 µM | OVCAR-5 > 100 µM | M14 > 100 µM | 786-0 > 100 µM | HCT-116 > 100 µM | RPMI-8226 46.7 µM | SF-539 > 100 µM

O=C1c2ccccc2C(=O)N1C/C=N/NS(=O)(=O)c1ccc(F)cc1
inactive: Malme-3M > 100 µM | SW-620 > 100 µM | TK-10 > 100 µM | NCI-H522 > 100 µM | ACHN > 100 µM | EKVX > 100 µM | K562 > 100 µM | SF-295 > 100 µM | U-251 > 100 µM | HCC 2998 > 100 µM | 786-0 > 100 µM | HCT-116 > 100 µM | MOLT-4 > 100 µM | RPMI-8226 > 100 µM | SF-539 > 100 µM

Cc1ccc(C)c(NC(=O)CC/C(=N\NC(=O)C(N)=O)C(C)C(=O)c2ccc(O)cc2)c1 (stereo not drawn)
inactive: Malme-3M > 100 µM | SW-620 > 100 µM | ACHN > 100 µM | EKVX > 100 µM | K562 > 100 µM | SF-295 > 100 µM | OVCAR-3 > 100 µM | U-251 > 100 µM | HCC 2998 > 100 µM | OVCAR-5 > 100 µM | M14 > 100 µM | HOP-92 > 100 µM | 786-0 > 100 µM | HCT-116 > 100 µM | MOLT-4 > 100 µM | SF-539 > 100 µM

Cc1cc(C)c(N[S+]([O-])c2cccc([N+](=O)[O-])c2)c(C)c1 (stereo not drawn)
inactive: Malme-3M > 100 µM | SW-620 > 100 µM | TK-10 > 100 µM | ACHN > 100 µM | K562 > 100 µM | SF-295 > 100 µM | OVCAR-3 > 100 µM | U-251 > 100 µM | OVCAR-5 > 100 µM | M14 > 100 µM | HOP-92 > 100 µM | 786-0 > 100 µM | MOLT-4 > 100 µM | RPMI-8226 > 100 µM | SF-539 > 100 µM

O=C1c2ccccc2N2OC3(N4CCCC4)CCCC3C12c1ccccc1 (stereo not drawn)
inactive: Malme-3M > 100 µM | SW-620 > 100 µM | NCI-H522 > 100 µM | ACHN > 100 µM | EKVX > 100 µM | K562 76.6 µM | SF-295 86.1 µM | U-251 > 100 µM | HCC 2998 > 100 µM | M14 > 100 µM | HOP-92 34.8 µM | 786-0 > 100 µM | HCT-116 73.3 µM | MOLT-4 49.9 µM | RPMI-8226 62.8 µM | SF-539 > 100 µM

Cn1nc(-c2ccccc2)c(N=[N+]=[N-])cc1=O
inactive: Malme-3M > 100 µM | SW-620 > 100 µM | TK-10 > 100 µM | NCI-H522 > 100 µM | ACHN > 100 µM | EKVX > 100 µM | K562 > 100 µM | SF-295 > 100 µM | OVCAR-3 > 100 µM | U-251 > 100 µM | HCC 2998 > 100 µM | OVCAR-5 > 100 µM | M14 > 100 µM | 786-0 > 100 µM | HCT-116 > 100 µM | MOLT-4 > 100 µM | RPMI-8226 > 100 µM | SF-539 > 100 µM

CN(C)c1ccc(/C=C2\Cc3ccccc3C2=O)cc1Br
inactive: Malme-3M 31.8 µM | SW-620 59.3 µM | TK-10 > 100 µM | NCI-H522 23.4 µM | ACHN 45.8 µM | EKVX 76.6 µM | K562 33 µM | SF-295 > 100 µM | OVCAR-3 > 100 µM | U-251 53.3 µM | HCC 2998 > 100 µM | OVCAR-5 79.1 µM | M14 54.6 µM | 786-0 54.1 µM | MOLT-4 28.5 µM | RPMI-8226 24.1 µM

C=CC[C@H]1C[C@@]2(C)OC[C@H](C(C)C)N2C1=O
inactive: Malme-3M > 100 µM | SW-620 > 100 µM | TK-10 > 100 µM | ACHN > 100 µM | EKVX > 100 µM | K562 > 100 µM | SF-295 > 100 µM | OVCAR-3 > 100 µM | U-251 > 100 µM | OVCAR-5 > 100 µM | HOP-92 > 100 µM | 786-0 > 100 µM | HCT-116 > 100 µM | RPMI-8226 > 100 µM | SF-539 > 100 µM

Cn1c(=O)c2c(ncn2CCCCn2ccnc2[N+](=O)[O-])n(C)c1=O
inactive: Malme-3M > 100 µM | SW-620 > 100 µM | TK-10 > 100 µM | NCI-H522 > 100 µM | ACHN > 100 µM | EKVX > 100 µM | K562 > 100 µM | SF-295 > 100 µM | OVCAR-3 > 100 µM | U-251 > 100 µM | OVCAR-5 > 100 µM | M14 > 100 µM | 786-0 > 100 µM | HCT-116 > 100 µM | MOLT-4 > 100 µM | RPMI-8226 > 100 µM | SF-539 > 100 µM

COC(=O)C1[C@@H](C(=O)OC)C(=O)O[C@H]1c1cc(OC)c(OC)c(OC)c1 (stereo partly drawn)
inactive: Malme-3M > 100 µM | SW-620 > 100 µM | TK-10 > 100 µM | ACHN > 100 µM | K562 > 100 µM | SF-295 > 100 µM | OVCAR-3 > 100 µM | U-251 > 100 µM | HCC 2998 > 100 µM | OVCAR-5 > 100 µM | M14 > 100 µM | HOP-92 > 100 µM | 786-0 > 100 µM | HCT-116 > 100 µM | MOLT-4 > 100 µM | RPMI-8226 > 100 µM | SF-539 > 100 µM

CCCCCCCCCCCCCCCCCC[N+](C)(C)Cc1ccc(C[N+](C)(C)CCCCCCCCCCCCCCCCCC)cc1
inactive: Malme-3M 24.3 µM | SW-620 18.2 µM | TK-10 13.6 µM | NCI-H522 2.97 µM | ACHN 10.4 µM | EKVX 18.9 µM | K562 45.1 µM | SF-295 11.3 µM | OVCAR-3 7.01 µM | U-251 7.98 µM | HCC 2998 26.2 µM | OVCAR-5 32.9 µM | M14 17.3 µM | HOP-92 5.26 µM | 786-0 12.7 µM | HCT-116 14.2 µM | MOLT-4 21 µM | RPMI-8226 15.6 µM

Reference: ChEMBL document CHEMBL1201862, “PubChem BioAssay data set” (2004)
